Reference: ChEMBL document CHEMBL1130702, “Novel cytotoxic diterpenes from the stem of Dysoxylum kuskusense” (Bioorg Med Chem Lett, 1998)

How the values were obtained:
Type in all cases: functional, cell-based
Conditions in all cases: Homo sapiens
K562 = experiment: Compound was tested for cytotoxicity against K-562 (leukemia) cell line
HL-60 [1] = experiment: Compound was tested for cytotoxicity against HL-60 (TB) cell line
NCI-H522 = experiment: Compound was tested for cytotoxicity against NCI-H522 (lung tumor)cell line
HL-60 [2] = experiment: Compound was tested for cytotoxicity against HL-60(TB) leukemia tumor cell line

Compound	EC50 (K562) [µM]	EC50 (HL-60 [1]) [µM]	EC50 (NCI-H522) [µM]	EC50 (HL-60 [2]) [µM]
CC1=CC(=O)C[C@]2(C)CC[C@@H](C(C)CC(=O)CC(C)C)C[C@@H]12 (stereo not given in full)	5.04	2.25	4.8	
CC1=CC(=O)C[C@]2(C)CC[C@@H](C(C)CC(=O)CC(C)C)C[C@@]12OO (stereo not given in full)				6.35
CC1=CC(=O)C[C@@]2(C)CC[C@@H](C(C)CC(=O)CC(C)C)C[C@@]12OO (stereo not given in full)				2.37
